US11548871B2, “Triazole carbamate pyridyl sulfonamides as LPA receptor antagonists and uses thereof” (Gilead Sciences, Inc., priority 2019, dated 2023)

These compounds were tested against human LPAR1 (Homo sapiens, UniProt Q92633) (assay: LPAR1 intracellular calcium mobilization assay (antagonist mode)).
Chain of human LPAR1 (Q92633 whole entry): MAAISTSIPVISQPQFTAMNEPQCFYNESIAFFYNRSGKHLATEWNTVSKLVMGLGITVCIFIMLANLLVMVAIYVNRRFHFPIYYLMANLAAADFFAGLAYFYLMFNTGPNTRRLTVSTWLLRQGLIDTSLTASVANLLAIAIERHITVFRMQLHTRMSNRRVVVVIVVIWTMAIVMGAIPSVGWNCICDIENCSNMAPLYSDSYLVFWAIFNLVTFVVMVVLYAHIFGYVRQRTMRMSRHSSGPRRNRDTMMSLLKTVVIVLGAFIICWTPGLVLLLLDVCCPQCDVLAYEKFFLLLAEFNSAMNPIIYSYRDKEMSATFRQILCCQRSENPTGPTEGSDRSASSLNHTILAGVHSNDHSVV
Description: In vitro LPAR1 activity was measured in an intracellular calcium mobilization assay.
Prior to testing cell media were aspirated from the cells and replaced with 20 μL Calcium Dye Loading Buffer (DiscoverX Calcium NoWash^PLUS Assay Kit cat #90-0091) and 2.5 mM Probenecid (Sigma Aldrich cat #P8761, prepared fresh) in HBSS/20 mM Hepes for 60 min at 37° C.
For agonist dose curves, cells were removed from the incubator after dye loading and 10 μL HBSS/20 mM Hepes including 3× vehicle was added. Cells were incubated for 30 min at room temperature in the dark to equilibrate plate temperatures. An intermediate LPA dilution series was prepared in assay buffer to generate 4× stock. Calcium mobilization was monitored on a FLIPR Tetra (MDS, San Jose, Calif.) for 2 min and 10 μL 4×LPA in HBSS/20 mM Hepes was added to the cells 5 s into the assay.
An intermediate antagonist dilution series was prepared as 3× samples in assay buffer. After dye loading, cells were removed from the incubator and 10 μL 3× antagonist was added. Cells were incubated for 30 min at room temperature in the dark to equilibrate plate temperatures. The final vehicle (DMSO) concentration was 1%. Compound antagonist activities was measured on a FLIPR Tetra. Calcium mobilization was monitored for 2 min and 10 μL EC80 agonist in HBSS/20 mM Hepes was added to the cells 5 s into the assay. Compound activity was analyzed using CBIS data analysis suite (ChemInnovation Software, San Diego, Calif.).

Row | SMILES | EC50 [nM]
1 | COc1nc(-c2nnn(C)c2NC(=O)O[C@H](C)c2ccccc2)ccc1NS(C)(=O)=O [Compound 1, (R)-1-phenylethyl (4-(6-methoxy-5-(methylsulfonamido)pyridin-2-yl)-1-methyl-1H-1,2,3-triazol-5-yl)carbamate] | 323
2 | C[C@@H](OC(=O)Nc1c(-c2ccc(NS(C)(=O)=O)c(Cl)n2)nnn1C)c1ccccc1 [Compound 2, (R)-1-phenylethyl (4-(6-chloro-5-(methylsulfonamido)pyridin-2-yl)-1-methyl-1H-1,2,3-triazol-5-yl)carbamate] | 270
3 | C[C@@H](OC(=O)Nc1c(-c2ccc(NS(C)(=O)=O)c(F)n2)nnn1C)c1ccccc1 [Compound 3, (R)-1-phenylethyl (4-(6-fluoro-5-(methylsulfonamido)pyridin-2-yl)-1-methyl-1H-1,2,3-triazol-5-yl)carbamate] | 166
4 | COc1nc(-c2nnn(C)c2NC(=O)O[C@H](C)c2ccccc2Cl)ccc1NS(C)(=O)=O [Compound 4, (R)-1-(2-chlorophenyl)ethyl (4-(6-methoxy-5-(methylsulfonamido)pyridin-2-yl)-1-methyl-1H-1,2,3-triazol-5-yl)carbamate] | 61.7
5 | C[C@@H](OC(=O)Nc1c(-c2ccc(NS(C)(=O)=O)c(F)n2)nnn1C)c1ccccc1Cl [Compound 5, (R)-1-(2-chlorophenyl)ethyl (4-(6-fluoro-5-(methylsulfonamido)pyridin-2-yl)-1-methyl-1H-1,2,3-triazol-5-yl)carbamate] | 34.3
6 | Cn1nnc(-c2ccc(NS(C)(=O)=O)c(F)n2)c1NC(=O)O[C@@H](c1ccccc1)C(F)F [Compound 6, (S)-2,2-difluoro-1-phenylethyl (4-(6-fluoro-5-(methylsulfonamido)pyridin-2-yl)-1-methyl-1H-1,2,3-triazol-5-yl)carbamate] | 71.3
7 | COc1nc(-c2nnn(C)c2NC(=O)O[C@@H](c2ccccc2)C(F)F)ccc1NS(C)(=O)=O [Compound 7, (S)-2,2-difluoro-1-phenylethyl (4-(6-methoxy-5-(methylsulfonamido)pyridin-2-yl)-1-methyl-1H-1,2,3-triazol-5-yl)carbamate] | 112
8 | C[C@@H](OC(=O)Nc1c(-c2ccc(NS(C)(=O)=O)cn2)nnn1C)c1ccccc1Cl [Compound 10, (R)-1-(2-chlorophenyl)ethyl (1-methyl-4-(5-(methylsulfonamido)pyridin-2-yl)-1H-1,2,3-triazol-5-yl)carbamate] | 37.4
9 | Cc1nc(-c2nnn(C)c2NC(=O)O[C@H](C)c2ccccc2Cl)ccc1NS(C)(=O)=O [Compound 11, (R)-1-(2-chlorophenyl)ethyl (1-methyl-4-(6-methyl-5-(methylsulfonamido)pyridin-2-yl)-1H-1,2,3-triazol-5-yl)carbamate] | 23.8
10 | CCCn1nnc(-c2ccc(NS(C)(=O)=O)c(C)n2)c1NC(=O)O[C@H](C)c1ccccc1Cl [Compound 12, (R)-1-(2-chlorophenyl)ethyl (4-(6-methyl-5-(methylsulfonamido)pyridin-2-yl)-1-propyl-1H-1,2,3-triazol-5-yl)carbamate] | 221
11 | Cn1nnc(-c2ccc(NS(=O)(=O)CC#N)cn2)c1NC(=O)O[C@@H](c1ccccc1)C(F)F [Compound 13, (S)-2,2-difluoro-1-phenylethyl(4-(5-((cyanomethyl)sulfonamido)pyridin-2-yl)-1-methyl-1H-1,2,3-triazol-5-yl)carbamate] | 71.4
12 | C[C@@H](OC(=O)Nc1c(-c2ccc(NS(C)(=O)=O)cn2)nnn1C)c1cccc(Cl)c1 [Compound 14, (R)-1-(3-chlorophenyl)ethyl (1-methyl-4-(5-(methylsulfonamido)pyridin-2-yl)-1H-1,2,3-triazol-5-yl)carbamate] | 66.3
13 | Cn1nnc(-c2ccc(NS(C)(=O)=O)cn2)c1NC(=O)O[C@@H](c1ccccc1)C(F)F [Compound 15, (S)-2,2-difluoro-1-phenylethyl (1-methyl-4-(5-(methylsulfonamido)pyridin-2-yl)-1H-1,2,3-triazol-5-yl)carbamate] | 8.2
14 | C[C@@H](OC(=O)Nc1c(-c2ccc(NS(C)(=O)=O)cn2)nnn1C)c1ccccc1F [Compound 16, (R)-1-(2-fluorophenyl)ethyl (1-methyl-4-(5-(methylsulfonamido)pyridin-2-yl)-1H-1,2,3-triazol-5-yl)carbamate] | 5.3
15 | C[C@@H](OC(=O)Nc1c(-c2ccc(NS(C)(=O)=O)cn2)nnn1C)c1cc(F)ccc1F [Compound 17, (R)-1-(2,5-difluorophenyl)ethyl (1-methyl-4-(5-(methylsulfonamido)pyridin-2-yl)-1H-1,2,3-triazol-5-yl)carbamate] | 5
16 | Cn1nnc(-c2ccc(NS(C)(=O)=O)cn2)c1NC(=O)O[C@H](CF)c1ccccc1 [Compound 18, (S)-2-fluoro-1-phenylethyl (1-methyl-4-(5-(methylsulfonamido)pyridin-2-yl)-1H-1,2,3-triazol-5-yl)carbamate] | 46.1
17 | Cc1cccc(COC(=O)Nc2c(-c3ccc(NS(C)(=O)=O)cn3)nnn2C)c1 [Compound 19, 3-methylbenzyl (1-methyl-4-(5-(methylsulfonamido)pyridin-2-yl)-1H-1,2,3-triazol-5-yl)carbamate] | 284

Row | SMILES | EC50 [nM]
18 | Cn1nnc(-c2ccc(NS(C)(=O)=O)cn2)c1NC(=O)OCc1cccc(Cl)c1 [Compound 20, 3-chlorobenzyl (1-methyl-4-(5-(methylsulfonamido)pyridin-2-yl)-1H-1,2,3-triazol-5-yl)carbamate] | 117
19 | Cn1nnc(-c2ccc(NS(C)(=O)=O)cn2)c1NC(=O)OCc1cccc(F)c1 [Compound 21, 3-fluorobenzyl (1-methyl-4-(5-(methylsulfonamido)pyridin-2-yl)-1H-1,2,3-triazol-5-yl)carbamate] | 37.8
20 | Cn1nnc(-c2ccc(NS(C)(=O)=O)cn2)c1NC(=O)O[C@H](CF)c1cccc(F)c1 [Compound 22, (S)-2-fluoro-1-(3-fluorophenyl)ethyl (1-methyl-4-(5-(methylsulfonamido)pyridin-2-yl)-1H-1,2,3-triazol-5-yl)carbamate] | 8.7
21 | C[C@@H](OC(=O)Nc1c(-c2ccc(NS(C)(=O)=O)cn2)nnn1C)c1cccnc1Cl [Compound 23, (R)-1-(2-chloropyridin-3-yl)ethyl (1-methyl-4-(5-(methylsulfonamido)pyridin-2-yl)-1H-1,2,3-triazol-5-yl)carbamate] | 36
22 | Cc1nc(-c2nnn(C)c2NC(=O)O[C@H](C)c2cccc(Cl)c2F)ccc1NS(C)(=O)=O [Compound 24, (R)-1-(3-chloro-2-fluorophenyl)ethyl (1-methyl-4-(6-methyl-5-(methylsulfonamido)pyridin-2-yl)-1H-1,2,3-triazol-5-yl)carbamate] | 276
23 | Cc1nc(-c2nnn(C)c2NC(=O)O[C@H](CF)c2cccc(Cl)c2)ccc1NS(C)(=O)=O [Compound 25, (S)-1-(3-chlorophenyl)-2-fluoroethyl (1-methyl-4-(6-methyl-5-(methylsulfonamido)pyridin-2-yl)-1H-1,2,3-triazol-5-yl)carbamate] | 18.7
24 | Cc1nc(-c2nnn(C)c2NC(=O)O[C@@H](c2cc(F)ccc2F)C(F)F)ccc1NS(C)(=O)=O [Compound 26, (S)-1-(2,5-difluorophenyl)-2,2-difluoroethyl (1-methyl-4-(6-methyl-5-(methylsulfonamido)pyridin-2-yl)-1H-1,2,3-triazol-5-yl)carbamate] | 34.1
25 | Cc1ccc(C)c([C@@H](C)OC(=O)Nc2c(-c3ccc(NS(C)(=O)=O)c(C)n3)nnn2C)c1 [Compound 27, (R)-1-(2,5-dimethylphenyl)ethyl (1-methyl-4-(6-methyl-5-(methylsulfonamido)pyridin-2-yl)-1H-1,2,3-triazol-5-yl)carbamate] | 57.7
26 | CCCC[C@@H](C)OC(=O)Nc1c(-c2ccc(NS(C)(=O)=O)c(C)n2)nnn1C [Compound 28, (R)-hexan-2-yl (1-methyl-4-(6-methyl-5-(methylsulfonamido)pyridin-2-yl)-1H-1,2,3-triazol-5-yl)carbamate] | 171
27 | Cc1nc(-c2nnn(C)c2NC(=O)OCCCC(C)C)ccc1NS(C)(=O)=O [Compound 29, 4-methylpentyl (1-methyl-4-(6-methyl-5-(methylsulfonamido)pyridin-2-yl)-1H-1,2,3-triazol-5-yl)carbamate] | 325
28 | Cc1nc(-c2nnn(C)c2NC(=O)OCCCC(C)(C)C)ccc1NS(C)(=O)=O [Compound 30, 4,4-dimethylpentyl (1-methyl-4-(6-methyl-5-(methylsulfonamido)pyridin-2-yl)-1H-1,2,3-triazol-5-yl)carbamate] | 667
29 | CCCCCCOC(=O)Nc1c(-c2ccc(NS(C)(=O)=O)c(C)n2)nnn1C [Compound 31, hexyl (1-methyl-4-(6-methyl-5-(methylsulfonamido)pyridin-2-yl)-1H-1,2,3-triazol-5-yl)carbamate] | 1220
30 | Cc1nc(-c2nnn(C)c2NC(=O)OCCC(C)(C)C)ccc1NS(C)(=O)=O [Compound 32, 3,3-dimethylbutyl (1-methyl-4-(6-methyl-5-(methylsulfonamido)pyridin-2-yl)-1H-1,2,3-triazol-5-yl)carbamate] | 1690
31 | Cc1nc(-c2nnn(C)c2NC(=O)OCCC(C)C)ccc1NS(C)(=O)=O [Compound 33, isopentyl (1-methyl-4-(6-methyl-5-(methylsulfonamido)pyridin-2-yl)-1H-1,2,3-triazol-5-yl)carbamate] | 3680
32 | COCC(OC(=O)Nc1c(-c2ccc(NS(C)(=O)=O)c(C)n2)nnn1C)c1ccccc1 (stereo not shown) [Compound 34, 2-methoxy-1-phenylethyl (1-methyl-4-(6-methyl-5-(methylsulfonamido)pyridin-2-yl)-1H-1,2,3-triazol-5-yl)carbamate] | 469
33 | COCc1ccccc1[C@@H](C)OC(=O)Nc1c(-c2ccc(NS(C)(=O)=O)c(C)n2)nnn1C [Compound 35, (R)-1-(2-(methoxymethyl)phenyl)ethyl (1-methyl-4-(6-methyl-5-(methylsulfonamido)pyridin-2-yl)-1H-1,2,3-triazol-5-yl)carbamate] | 327
34 | Cc1nc(-c2nnn(C)c2NC(=O)OCc2cc(F)ccc2F)ccc1NS(C)(=O)=O [Compound 36, 2,5-difluorobenzyl (1-methyl-4-(6-methyl-5-(methylsulfonamido)pyridin-2-yl)-1H-1,2,3-triazol-5-yl)carbamate] | 220
